Assay results: PubChem BioAssay (NCI)
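Protocol summary: plate cells (96-well), add compound at 5 concentrations, incubate 48 h, interpolate endpoints linearly. TGI is the concentration that stops growth completely.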

Assays:
Assay in all cases: DTP human tumour cell line panel, 48 h
[1] = tested on: SR leukemia
[2] = tested on: COLO 205 colon
[3] = tested on: NCI-H460 lung
[4] = tested on: SNB-75 CNS
[5] = tested on: CAKI-1 renal
[6] = tested on: MDA-MB-435
[7] = tested on: OVCAR-8 ovarian
[8] = tested on: SK-MEL-2 melanoma
[9] = tested on: MDA-MB-231 breast
[10] = tested on: KM12 colon
[11] = tested on: HOP-62 NSCLC
[12] = tested on: UACC-257 melanoma
[13] = tested on: MALME-3M melanoma
[14] = tested on: RXF 393 renal
[15] = tested on: MOLT-4 leukemia
[16] = tested on: 786-0 renal
[17] = tested on: OVCAR-5 ovarian
[18] = tested on: A549 NSCLC
[19] = tested on: NCI-H522 lung
[20] = tested on: LOX IMVI melanoma
[21] = tested on: SK-MEL-5 melanoma
[22] = tested on: MCF7 breast
[23] = tested on: HT29 colon
[24] = tested on: U251 CNS
[25] = tested on: ACHN renal
[26] = tested on: HOP-92 NSCLC
[27] = tested on: UACC-62 melanoma
[28] = tested on: HCC-2998 colon
[29] = tested on: M14 melanoma
[30] = tested on: HCT-116 colon
[31] = tested on: EKVX NSCLC
[32] = tested on: NCI-H226 lung
[33] = tested on: TK-10 renal
[34] = tested on: A498 renal
[35] = tested on: T-47D breast
[36] = tested on: SK-OV-3 ovarian
[37] = tested on: MDA-N
[38] = tested on: NCI-H23 lung
[39] = tested on: HS 578T breast
[40] = tested on: OVCAR-3 ovarian
[41] = tested on: SNB-19 CNS
[42] = tested on: SF-539 CNS
[43] = tested on: OVCAR-4 ovarian
[44] = tested on: SN12C renal
[45] = tested on: RPMI-8226 leukemia
[46] = tested on: HL-60(TB) leukemia
[47] = tested on: SF-268 CNS
[48] = tested on: DU-145 prostate
[49] = tested on: SK-MEL-28 melanoma
[50] = tested on: SF-295 CNS
[51] = tested on: BT-549 breast
[52] = tested on: SW-620 colon
[53] = tested on: PC-3 prostate
[54] = tested on: HCT-15 colon
[55] = tested on: NCI/ADR-RES ovarian
[56] = tested on: K-562 leukemia
[57] = tested on: IGROV1 ovarian
[58] = tested on: CCRF-CEM leukemia
[59] = tested on: UO-31 renal

O=C1CCCCC1C(O)(C(F)(F)F)C(F)(F)Cl (stereo not given)
TGI [1]: > 10 µM | TGI [2]: > 10 µM | TGI [3]: > 10 µM | TGI [4]: > 10 µM | TGI [5]: > 10 µM | TGI [6]: > 10 µM | TGI [7]: > 10 µM | TGI [8]: > 10 µM | TGI [9]: > 10 µM | TGI [10]: > 10 µM | TGI [11]: > 10 µM | TGI [12]: > 10 µM | TGI [13]: > 10 µM | TGI [14]: > 10 µM | TGI [15]: > 10 µM | TGI [16]: > 10 µM | TGI [17]: > 10 µM | TGI [18]: > 10 µM | TGI [19]: > 10 µM | TGI [20]: > 10 µM | TGI [21]: > 10 µM | TGI [22]: > 10 µM | TGI [23]: > 10 µM | TGI [24]: > 10 µM | TGI [25]: > 10 µM | TGI [26]: > 10 µM | TGI [27]: > 10 µM | TGI [28]: > 10 µM | TGI [29]: > 10 µM | TGI [30]: > 10 µM | TGI [31]: > 10 µM | TGI [32]: > 10 µM | TGI [33]: > 10 µM | TGI [34]: > 10 µM | TGI [35]: > 10 µM | TGI [36]: > 10 µM | TGI [37]: > 10 µM | TGI [38]: > 10 µM | TGI [39]: > 10 µM | TGI [40]: > 10 µM | TGI [41]: > 10 µM | TGI [42]: > 10 µM | TGI [43]: > 10 µM | TGI [44]: > 10 µM | TGI [45]: > 10 µM | TGI [46]: > 10 µM | TGI [47]: > 10 µM | TGI [48]: > 10 µM | TGI [49]: > 10 µM | TGI [50]: > 10 µM | TGI [51]: > 10 µM | TGI [52]: > 10 µM | TGI [53]: > 10 µM | TGI [54]: > 10 µM | TGI [55]: > 10 µM | TGI [56]: > 10 µM | TGI [57]: > 10 µM | TGI [58]: > 10 µM

C=CC(OC(=O)C(C)C)c1ccc(OC(=O)C(C)C)cc1 (stereo not given)
TGI [1]: > 100 µM | TGI [2]: 27.6 µM | TGI [3]: 30.9 µM | TGI [4]: 28.6 µM | TGI [59]: 30.9 µM | TGI [5]: 10.2 µM | TGI [6]: 26.4 µM | TGI [7]: 31.4 µM | TGI [8]: 24 µM | TGI [9]: 35.5 µM | TGI [10]: 5.16 µM | TGI [11]: 22.6 µM | TGI [12]: 27.9 µM | TGI [13]: 22 µM | TGI [15]: 49.7 µM | TGI [16]: 18.9 µM | TGI [17]: 20.2 µM | TGI [18]: 36.9 µM | TGI [19]: 3.56 µM | TGI [20]: 16.6 µM | TGI [21]: 30.6 µM | TGI [22]: 12.2 µM | TGI [23]: 26.3 µM | TGI [24]: 15.3 µM | TGI [25]: 28 µM | TGI [26]: 31.4 µM | TGI [27]: 31 µM | TGI [28]: 26.7 µM | TGI [29]: 21.4 µM | TGI [30]: 20.6 µM | TGI [31]: 39.3 µM | TGI [32]: 39 µM | TGI [34]: 31.6 µM | TGI [35]: 69.8 µM | TGI [36]: 34 µM | TGI [37]: 25.9 µM | TGI [38]: 51.4 µM | TGI [39]: > 100 µM | TGI [40]: 31.1 µM | TGI [41]: 28.2 µM | TGI [42]: 30.7 µM | TGI [43]: 33.8 µM | TGI [44]: 30 µM | TGI [45]: 11.7 µM | TGI [46]: 21 µM | TGI [47]: 62.2 µM | TGI [48]: > 100 µM | TGI [49]: 23.8 µM | TGI [50]: 29.1 µM | TGI [51]: 31.2 µM | TGI [52]: 20.7 µM | TGI [53]: 21.9 µM | TGI [54]: 20.2 µM | TGI [55]: 54.8 µM | TGI [56]: 66.6 µM | TGI [57]: 32.7 µM | TGI [58]: 10.7 µM
